Measured values: patent US6160004A, “C-10 carbon-substituted artemisinin-like trioxane compounds having antimalarial, antiproliferative and antitumor activities” (priority 1998, dated 2000)
Like-named read-outs stand apart in the source and are kept apart here.

Key:
SR = experiment: cells; assay type: cell-based; conditions: Homo sapiens, 48 h; for CC50: read-out: Log10 LC50 (converted)
MDA-N = experiment: NCI 60 cell line panel screening assay (SRB), MDA-N; assay type: cell-based; conditions: Homo sapiens, breast cancer, 48 h
CAKI-1 = experiment: NCI 60 cell line panel screening assay (SRB), CAKI-1; assay type: cell-based; conditions: Homo sapiens, CAKI-1, renal cancer, 48 h
SF-268 = experiment: cells; assay type: cell-based; conditions: Homo sapiens; for CC50: read-out: Log10 LC50 (converted)
TK-10 = experiment: cells; assay type: cell-based; conditions: Homo sapiens; for CC50: read-out: Log10 LC50 (converted)
SK-OV-3 = experiment: cells; assay type: cell-based; conditions: Homo sapiens; for IC (TGI): read-out: Log10 TGI (converted)
HT29 = experiment: cells; assay type: cell-based; conditions: Homo sapiens
A498 = experiment: cells; assay type: cell-based; conditions: Homo sapiens
MCF7 = experiment: cells; assay type: cell-based; conditions: Homo sapiens
SNB-19 = experiment: cells; assay type: cell-based; conditions: Homo sapiens; for CC50: read-out: Log10 LC50 (converted)
NCI-H322M = experiment: cells; conditions: Homo sapiens, 48 h; for CC50: read-out: Log10 LC50 (converted)
UACC-257 = experiment: cells; assay type: cell-based
BT-549 = experiment: cells; assay type: cell-based; conditions: Homo sapiens, read-out: Log10 LC50 (converted)
UACC-62 = experiment: cells; assay type: cell-based; conditions: Homo sapiens, UACC-62, melanoma, 48 h
SN12C = experiment: NCI 60 cell line panel screening assay (SRB), SN12C; assay type: cell-based; conditions: Homo sapiens, 48 h
T-47D = experiment: NCI 60 cell line panel screening assay (SRB), T-47D; conditions: Homo sapiens, T47D, 48 h; for CC50: read-out: Log10 LC50 (converted)
CCRF-CEM = experiment: cells; assay type: cell-based; conditions: Homo sapiens, 48 h; for CC50: read-out: Log10 LC50 (converted)
HOP-92 = experiment: cells; assay type: cell-based; conditions: Homo sapiens
DU-145 = experiment: cells; assay type: cell-based
NCI-H226 = experiment: cells; assay type: cell-based; conditions: Homo sapiens
OVCAR-3 = experiment: cells; assay type: cell-based; conditions: Homo sapiens; for CC50: read-out: Log10 LC50 (converted)
NCI-H23 = experiment: cells; assay type: cell-based; conditions: Homo sapiens; NCI-H23, non-small cell lung cancer, 48 h; read-out: Log10 LC50 (converted)
K-562 = experiment: cells; assay type: cell-based; conditions: Homo sapiens; for CC50: read-out: Log10 LC50 (converted)
60 cell line panel = experiment: NCI 60 cell line panel, whole panel; conditions: panel
MOLT-4 [1] = experiment: cells; conditions: Homo sapiens; for IC50: MOLT-4, read-out: concentration for primary growth inhibition (PG +50)
M14 = experiment: NCI 60 cell line panel screening assay (SRB), M14; conditions: Homo sapiens, M14, 48 h
RPMI-8226 = experiment: NCI 60 cell line panel screening assay (SRB), RPMI-8226; assay type: cell-based; conditions: Homo sapiens
MOLT-4 [2] = conditions: MOLT-4, FIG. 6
U251 = experiment: cells; assay type: cell-based; conditions: Homo sapiens, U-251, 48 h, read-out: Log10 GI50 (converted)
PC-3 = experiment: cells; assay type: cell-based; conditions: Homo sapiens; PC-3, prostate cancer, 48 h; read-out: Log10 GI50 (converted)
[3] = read-out: Log10 LC50 (converted)
[4] = read-out: Log10 TGI (converted)
[5] = read-out: Log10 GI50 (converted)
[6] = MOLT-4, 48 h, read-out: Log10 LC50 (converted)
[7] = MOLT-4, read-out: concentration for cytotoxicity (PG -50)

C[C@H]1[C@@H](F)O[C@@H]2O[C@@]3(C)CC[C@H]4[C@H](C)CC[C@@H]1[C@@]24OO3 [Compound VI, 10β-Fluoro-10-deoxoartemisinin]
CC50 (SR): > 100 µM
CC50 (MDA-N; [3]): > 100 µM
IC (TGI) (MDA-N; [4]): 21.4 µM
IC (TGI) (CAKI-1; [4]): 21.4 µM
CC50 (SF-268; SF-268, 48 h): > 100 µM
IC (TGI) (SF-268; SF-268, CNS cancer, 48 h, read-out: Log10 TGI): > 100 µM
CC50 (TK-10; TK-10, 48 h): > 100 µM
CC50 (SK-OV-3; SK-OV-3, 48 h, read-out: Log10 LC50 (converted)): > 100 µM
GI50 (SK-OV-3; SK-OV-3, ovarian cancer, 48 h, read-out: Log10 GI50 (converted)): 24 µM
IC (TGI) (SK-OV-3; SK-OV-3, ovarian cancer, 48 h): > 100 µM
CC50 (HT29; HT-29, 48 h, read-out: Log10 LC50 (converted)): > 100 µM
IC (TGI) (HT29; HT-29, printed H129, colon cancer, 48 h, read-out: Log10 TGI): > 100 µM
CC50 (A498; A498, 48 h, read-out: Log10 LC50 (converted)): > 100 µM
IC (TGI) (A498; A498, renal cancer, 48 h, read-out: Log10 TGI): > 100 µM
CC50 (MCF7; MCF7, 48 h, read-out: Log10 LC50 (converted)): > 100 µM
IC (TGI) (MCF7; MCF7, breast cancer, 48 h, read-out: Log10 TGI): > 100 µM
CC50 (SNB-19; SNB-19, 48 h): > 100 µM
IC (TGI) (SNB-19; SNB-19, CNS cancer, 48 h, read-out: Log10 TGI): > 100 µM
CC50 (NCI-H322M): > 100 µM
CC50 (UACC-257; Homo sapiens, UACC-257, 48 h, read-out: Log10 LC50 (converted)): > 100 µM
IC (TGI) (UACC-257; Homo sapiens, UACC-257, 48 h; read-out: Log10 TGI (converted)): > 100 µM
CC50 (BT-549; BT-549, 48 h): > 100 µM
GI50 (UACC-62; [5]): 2.34 µM
IC (TGI) (UACC-62; read-out: Log10 TGI): > 100 µM
CC50 (SN12C; [3]): > 100 µM
IC (TGI) (SN12C; renal cancer, read-out: Log10 TGI): > 100 µM
CC50 (T-47D): > 100 µM
CC50 (CCRF-CEM; leukemia): > 100 µM
CC50 (HOP-92; HOP-92, 48 h, read-out: Log10 LC50 (converted)): > 100 µM
IC (TGI) (HOP-92; HOP-92, non-small cell lung cancer, 48 h, read-out: Log10 TGI (converted)): 21.4 µM
CC50 (DU-145; Homo sapiens, DU-145, 48 h, read-out: Log10 LC50 (converted)): > 100 µM
GI50 (DU-145; Homo sapiens, DU-145, 48 h; read-out: Log10 GI50 (converted)): 19.5 µM
IC (TGI) (DU-145; Homo sapiens, DU-145, 48 h; read-out: Log10 TGI): > 100 µM
CC50 (NCI-H226; NCI-H226, 48 h, read-out: Log10 LC50 (converted)): > 100 µM
IC (TGI) (NCI-H226; NCI-H226, non-small cell lung cancer, 48 h, read-out: Log10 TGI): > 100 µM
CC50 (OVCAR-3; OVCAR-3, 48 h): > 100 µM
IC (TGI) (OVCAR-3; OVCAR-3, ovarian cancer, 48 h, read-out: Log10 TGI (converted)): > 100 µM
CC50 (NCI-H23): > 100 µM
CC50 (K-562; K562, K-562, leukemia, 48 h): > 100 µM
Delta of Log10 TGI (60 cell line panel): 1.18
Range of Log10 TGI (60 cell line panel): 1.56
CC50 (MOLT-4 [1]; [6]): > 100 µM
CC50 (MOLT-4 [1]; [7]): > 100 µM
IC50 (MOLT-4 [1]): ~0.1 µM
CC50 (M14; [3]): > 100 µM
IC (TGI) (M14; read-out: Log10 TGI): > 100 µM

CC1CCC2C(C)C(CC(=O)c3ccc(C(=O)CC4OC5OC6(C)CCC7C(C)CCC(C4C)C57OO6)cc3)OC3OC4(C)CCC1C32OO4 (stereo not drawn) [Dimer 38]
CC50 (RPMI-8226; RPMI-8226, 48 h, read-out: Log10 LC50 (converted)): > 100 µM
GI50 (RPMI-8226; RPMI-8226, leukemia, 48 h, read-out: Log10 GI50 (converted)): < 0.01 µM
IC (TGI) (RPMI-8226; RPMI-8226, leukemia, 48 h, read-out: Log10 TGI): < 0.01 µM
concentration for cytostasis (PG 0) (MOLT-4 [2]): approximately 10^-4 M
GI50 (U251): < 0.01 µM
GI50 (SR; [5]): < 0.01 µM
CC50 (SR; leukemia): > 100 µM
GI50 (CAKI-1; [5]): 0.0112 µM
CC50 (SF-268; SF-268, CNS cancer, 48 h): > 100 µM
CC50 (TK-10; TK-10, renal cancer, 48 h): > 100 µM
IC (TGI) (TK-10; TK-10, renal cancer, 48 h, read-out: Log10 TGI): > 100 µM
IC (TGI) (SK-OV-3; SK-OV-3, ovarian cancer, 48 h): 21.4 µM
GI50 (HT29; HT-29, 48 h, read-out: Log10 GI50 (converted)): < 0.01 µM
GI50 (PC-3): < 0.01 µM
GI50 (MCF7; MCF7, 48 h, read-out: Log10 GI50 (converted)): < 0.01 µM
CC50 (SNB-19; SNB-19, CNS cancer, 48 h): > 100 µM
GI50 (NCI-H322M; [5]): 3.8 µM
CC50 (NCI-H322M): > 100 µM
IC (TGI) (NCI-H322M; read-out: Log10 TGI): > 100 µM
GI50 (UACC-257; Homo sapiens, UACC-257, 48 h, read-out: Log10 GI50 (converted)): 0.0209 µM
CC50 (UACC-257; Homo sapiens, UACC-257, 48 h; read-out: Log10 LC50 (converted)): > 100 µM
CC50 (BT-549; BT-549, breast cancer, 48 h): > 100 µM
GI50 (T-47D; [5]): < 0.01 µM
CC50 (T-47D): > 100 µM
GI50 (CCRF-CEM; [5]): < 0.01 µM
CC50 (CCRF-CEM): > 100 µM
CC50 (DU-145; Homo sapiens, DU-145, 48 h; read-out: Log10 LC50 (converted)): > 100 µM
CC50 (OVCAR-3; OVCAR-3, ovarian cancer, 48 h): > 100 µM
GI50 (K-562; K562, 48 h, read-out: Log10 GI50 (converted)): < 0.01 µM
CC50 (K-562; K562, 48 h): > 100 µM
Delta of Log10 TGI (60 cell line panel): 3.17
GI50 (MOLT-4 [1]; MOLT-4, 48 h, read-out: Log10 GI50 (converted)): < 0.01 µM
CC50 (MOLT-4 [1]; [6]): > 100 µM
CC50 (MOLT-4 [1]; [7]): > 100 µM
IC50 (MOLT-4 [1]): < 0.1 µM
